# Measurements published in publication PMC2949447 (The Journal of steroid biochemistry and molecular biology, 2010).
# How the values were obtained:
# castrate rats = details: single sc injection 1.2 mg/rat, castrate 22 day-old rats; ref [5] and unpublished observations; cited from earlier work
# [1] = tested on: castrate immature male Sprague-Dawley rats; experiment: Effect of dutasteride in the sc androgenic assay; assay type: in vivo, rat; details: 8 days; for effect of concurrent DUT on androgen-stimulated VP and SV weights: maximal stimulatory sc dose of androgen ± DUT 1.0 mg/day orally
# [2] = Serum androgen levels by RIA in androgen ± dutasteride treated rats; details: for effect of concurrent DUT on serum level of the administered androgen: androgen sc ± DUT 1.0 mg/day orally, blood 2 h after final dose; for serum DHT levels: n=10
# [3] = tested on: recombinant human aromatase; details: conditions allowing complete conversion of T to estradiol; ref [13]; cited from earlier work
# [4] = tested on: castrate immature male Sprague-Dawley rats; experiment: sc androgenic assay in castrate immature rats; assay type: in vivo, rat
# [5] = tested on: rat liver or prostate homogenates; details: ref Sundaram et al. [1]; cited from earlier work
# [6] = target: T1, rat AR ligand binding domain (ARLBD) (Rattus norvegicus, UniProt P15207); experiment: Competitive binding to purified rat AR ligand binding domain; details: RBA = IC50 R1881/IC50 test compound X 100; R1881 defined as 100%
# T1 sequence (P15207 651-882 limits assumed): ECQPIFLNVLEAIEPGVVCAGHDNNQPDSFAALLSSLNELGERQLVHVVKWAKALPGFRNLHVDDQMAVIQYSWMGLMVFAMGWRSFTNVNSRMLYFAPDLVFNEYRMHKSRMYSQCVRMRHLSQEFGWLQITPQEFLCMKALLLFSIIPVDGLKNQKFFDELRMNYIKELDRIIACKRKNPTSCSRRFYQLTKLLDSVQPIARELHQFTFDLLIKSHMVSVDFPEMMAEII
compound,measurement,setting,value
"CCCCCCCCCCC(=O)O[C@H]1CC[C@H]2[C@H]3[C@H]([C@@H](C)C[C@]12C)[C@H]1CCC(=O)C=C1C[C@H]3C [DMAU, dimethandrolone 17β-undecanoate]",duration VP and SV growth maintained above castrate levels,castrate rats,about 21 weeks
"C[C@]12CC[C@H]3[C@@H](CCC4=CC(=O)CC[C@@]43C)[C@@H]1CC[C@@H]2O [T, Testosterone]",effect of concurrent DUT on androgen-stimulated VP and SV weights,[1],significantly blunted
same,effect of concurrent DUT on serum DHT in T-treated rats,"[2]; T sc + DUT 1.0 mg/day orally, 8 days",suppressed to levels observed in castrate vehicle-treated rats
same,effect of concurrent DUT on serum level of the administered androgen,[2]; 8 days,significantly elevated
same,serum DHT levels,"[2]; rats treated sc with 0.23 mg T alone for 8 days, 2 h after final dose","1,247 ± 106 pg/ml"
"C[C@H]1C[C@]2(C)[C@@H](O)CC[C@H]2[C@@H]2CCC3=CC(=O)CC[C@@H]3[C@H]21 [MNT, 11β-methyl-19-nortestosterone]",aromatization to aromatic A-ring estrogen,[3],not aromatized
same,effect of concurrent DUT on androgen-stimulated VP and SV weights,[1],did not affect VP or SV weights
same,effect of concurrent DUT on serum level of the administered androgen,[2]; 8 days,higher
"C[C@@H]1C[C@H]2CC(=O)CC[C@@H]2[C@@H]2[C@@H]1[C@@H]1CC[C@H](O)[C@@]1(C)C[C@@H]2C [5α-DHDMA, 5α-dihydroDMA]",androgenic potency as percent of DMA (ventral prostate growth),[4]; sc 7 days,30-40%
"C[C@@H]1CC2=CC(=O)CC[C@@H]2[C@H]2CC[C@]3(C)[C@@H](O)CC[C@H]3[C@@H]21 [MENT, 7α-methyl-19-nortestosterone]",effect of concurrent DUT on androgen-stimulated VP and SV weights,[1],comparable
same,effect of concurrent DUT on serum level of the administered androgen,[2]; 8 days,significantly decreased
same,5α-reduction,[5],not 5α-reduced
"C[C@]12CCC(=O)C[C@@H]1CC[C@@H]1[C@@H]2CC[C@]2(C)[C@@H](O)CC[C@@H]12 [DHT, 5α-dihydrotestosterone]",effect of concurrent DUT on androgen-stimulated VP and SV weights,[1],comparable
same,effect of concurrent DUT on serum level of the administered androgen,[2]; 8 days,not significantly different
"C[C@]12C=CC(=O)N[C@@H]1CC[C@@H]1[C@@H]2CC[C@]2(C)[C@@H](C(=O)Nc3cc(C(F)(F)F)ccc3C(F)(F)F)CC[C@@H]12 [DUT, 17β-N-2,5-bis-[trifluoromethyl]-phenylcarbamoyl-4-aza-5a-androstan-1-en-3-one]",toxicity judged by suppression of body weights,[1]; DUT 10 mg/day orally,showed evidence of toxicity
same,effect on VP and SV weights in T-treated rats,"[1]; DUT 0.1, 1.0 or 10.0 mg/day orally with T 0.23 mg/day sc",significantly decreased
same,serum DHT levels,"[2]; T 0.23 mg sc + DUT 0.1 mg/rat orally, 8 days",606 ± 111 pg/mL
same,serum DHT levels,"[2]; T 0.23 mg sc + DUT 1.0 mg/rat orally, 8 days",235 ± 36 pg/mL
same,serum DHT levels,"[2]; T 0.23 mg sc + DUT 10 mg/rat orally, 8 days",56 ± 4 pg/mL
"C[C@@H]1C[C@H]2CC(=O)CC[C@@H]2[C@H]2CC[C@]3(C)[C@@H](O)CC[C@H]3[C@@H]21 [5α-DHMENT, 5α-dihydroMENT]",Binding to ARLBD RBA,[6],26%
"CCCCCCCCCCCCOC(=O)O[C@H]1CC[C@H]2[C@@H]3CCC4=CC(=O)CC[C@@H]4[C@H]3[C@@H](C)C[C@]12C [MNTDC, 11β-methyl-19-nortestosterone 17β-dodecylcarbonate]",duration VP and SV growth maintained above castrate levels,castrate rats,~14 weeks
"C[C@@H]1CC2=CC(=O)CC[C@@H]2[C@@H]2[C@@H]1[C@@H]1CC[C@H](O)[C@@]1(C)C[C@@H]2C [DMA, 7α,11β-dimethyl-19-nortestosterone]",aromatization to aromatic A-ring estrogen,[3],not aromatized
same,effect of concurrent DUT on androgen-stimulated VP and SV weights,[1],did not affect VP or SV weights
same,"anabolic activity (stimulation of LA muscle weight), comparison","[4]; sc, Fig. 1b",greater than that of 5α-DHDMA or T
same,effect of concurrent DUT on serum level of the administered androgen,[2]; 8 days,not significantly different
